Test results taken from patent US20220073941A1, “HERBICIDE-RESISTANT CAMELINA SATIVA PLANTS, AND VARIANT CAMELINA ACETOHYDROXYACID SYNTHASE POLYPEPTIDES” (priority 2019, published 2022).
Values joined by “and” are separate entries in the source; they are usually repeats but may differ in a detail not shown here. Equal values may be shown once.

Columns and labels:
[1] = system: resistant lines 12CS0365, 12CS0366, 13CS0786; assay: Phenotype scoring (resistant/susceptible) 7 d after 2.5 g ai/ha thifensulfuron-methyl (Example 5); format: in vivo, Camelina sativa
From the text: (§1) At a thifensulfuron-methyl application rate of 2.5 g ai/ha, plants from parental, F2, BC1F1, and BC4F2 populations could easily be scored into one of two discrete phenotypic classes (R, resistant or S, susceptible) 7 d after herbicide application.

[2] = system: susceptible controls SRS 934, 10CS0048; assay: as above; format: in vivo, Camelina sativa; conditions: 7 d after application
From the text: as §1

12CS0365 = assay: Greenhouse dose-response to thifensulfuron-methyl, plant height and dry biomass (Example 6); format: in vivo, Camelina sativa
12CS0366 = assay: as above; format: in vivo, Camelina sativa
[3] = system: AHAS, enzyme extract of SRS 934; assay: AHAS product feedback inhibition assay (leucine, isoleucine, valine); format: biochemical, Camelina sativa; conditions: for Absorbance at 530 nm (AHAS product feedback inhibition assay, raw data), Avg: average of replicates per experiment; for Absorbance at 530 nm (AHAS product feedback inhibition assay, raw data): individual replicates, experiments 1-3
Procedure: (§2) Briefly, for each of the three comparators, leaf and stem (petiole) material was bulk-harvested at the 3-4 leaf stage from at least 30 plantlets, snap-frozen in liquid nitrogen, and stored at −80° C. The AHAS in vitro assay was conducted according to the method of Singh et al (1988), with modifications by Yu (2010) and Rustgi (2014). For each comparator, 4 grams of frozen material were ground to a fine powder with a mortar and pestle in liquid nitrogen and homogenized in 1 volume of cold extraction buffer containing 100 mM potassium phosphate buffer (pH7.5), 10 mM sodium pyruvate, 5 mM MgCl2, 100 μM flavin adenine dinucleotide (FAD), and 10% glycerol. Four 2-mL microcentrifuge tubes were used for each comparator. The homogenate was centrifuged at 13,000 rpm for 10 min at 4° C., supernatant collected and re-centrifuged for an additional 10 minutes under the same conditions. For each tube, 1 mL of supernatant was pipetted into a new 2-mL microcentrifuge tube, and protein was precipitated by the addition of 1 mL of saturated ammonium sulfate. The solution was mixed well by vortex and allowed to stand on ice for 20 minutes, then centrifuged at 13,000 rpm at 4° C. The protein pellet was resuspended in 300 μL of reaction buffer containing 50 mM potassium phosphate buffer (pH7.5), 100 mM sodium pyruvate, 10 mM MgCl2, 1 mM EDTA, 10 μM FAD, 100 mM NaCl, and 1 mM thiamine pyrophosphate. Tubes of each comparator were combined, mixed well, kept on ice and immediately used in the AHAS activity and feedback inhibition assays.
(§3) Total protein concentration of the crude extract was determined by the Bradford method (Bradford, 1976). All assays were conducted using 300 μg of total protein each.
(§4) The feedback inhibition assay was performed by combining equal amounts of extract and amino acids leucine, isoleucine, or valine, respectively, in concentrations of 0.1 mM, 1 mM, 10 mM and 100 mM, according to Yu et al. (2010). The reaction mixture contained 50 μL enzyme extract and 50 μL 100 mM sodium pyruvate and inhibitor amino acid. The reaction was incubated at 37° C. for 60 minutes, then stopped and acetolactate converted to acetoin with the addition of 20 μL of 6 N H2SO4 and incubated at 60° C. for 15 minutes. A separate background “blank” was included for each sample group by adding 20 μL of 6 N H2SO4 prior to the addition of the enzyme extracts. Then, 95 μL of 0.55% w/v creatine solution and 95 μL of α-naphthol solution (5.5% w/v in 5 N NaOH) were added and the mixture incubated at 60° C. for a further 15 minutes. After cooling to room temperature for 15 minutes, enzyme activity was determined colorimetrically by reading the absorbance at 530 nm. Three independent experiments were conducted. Experiment 1 and 2 each contained 2 technical replicates, while experiment 3 included 3 technical replicates.

[4] = system: AHAS, enzyme extract of MIDAS™; assay: as above; format: biochemical, Camelina sativa; conditions: for Absorbance at 530 nm (AHAS product feedback inhibition assay, raw data), Avg: average of replicates per experiment; for Absorbance at 530 nm (AHAS product feedback inhibition assay, raw data): individual replicates, experiments 1-3
Procedure: as §2, §3, §4

[5] = system: AHAS, enzyme extract of 14CS0851-01-14; assay: as above; format: biochemical, Camelina sativa; conditions: for Absorbance at 530 nm (AHAS product feedback inhibition assay, raw data), Avg: average of replicates per experiment; for Absorbance at 530 nm (AHAS product feedback inhibition assay, raw data): individual replicates, experiments 1-3
Procedure: as §2, §3, §4

[6] = 1 mM amino acid final concentration
[7] = 10 mM amino acid final concentration
[8] = 100 mM amino acid final concentration

## COC(=O)c1sccc1S(=O)(=O)NC(=O)Nc1nc(C)nc(OC)n1 [thifensulfuron-methyl]
[1]
  phenotype after herbicide application: consistently produced a resistant phenotype
[2]
  phenotype after herbicide application: either killed or greatly damaged
12CS0365; 12CS0365/12CS0366
  Ratio of ED50 biomass values, estimate: 0.08
  Ratio of ED50 height values, estimate: 0.35
12CS0365; 12CS0365/13CS0786
  Ratio of ED50 biomass values, estimate: 0.008
  Ratio of ED50 height values, estimate: 0.02
12CS0365; 12CS0365/SRS 934
  Ratio of ED50 biomass values, estimate: 7.93
  Ratio of ED50 height values, estimate: 12.72
12CS0366; 12CS0366/13CS0786
  Ratio of ED50 biomass values, estimate: 0.0968
  Ratio of ED50 height values, estimate: 0.20
12CS0366; 12CS0366/SRS 934
  Ratio of ED50 biomass values, estimate: 99.70
  Ratio of ED50 height values, estimate: 36.9

## CC(C)[C@H](N)C(=O)O [valine]
[3]; [6]
  Absorbance at 530 nm (AHAS product feedback inhibition assay, raw data), Avg: 0.231 and 0.181 and 0.094
  Absorbance at 530 nm (AHAS product feedback inhibition assay, raw data): 0.236 and 0.226 and 0.198 and 0.163 and 0.086 and 0.098 and 0.100
[3]; [7]
  Absorbance at 530 nm (AHAS product feedback inhibition assay, raw data), Avg: 0.184 and 0.179 and 0.093
  Absorbance at 530 nm (AHAS product feedback inhibition assay, raw data): 0.186 and 0.182 and 0.206 and 0.151 and 0.091 (2×) and 0.096
[3]; [8]
  Absorbance at 530 nm (AHAS product feedback inhibition assay, raw data), Avg: 0.1625 and 0.142 and 0.070
  Absorbance at 530 nm (AHAS product feedback inhibition assay, raw data): 0.168 and 0.157 and 0.184 and 0.100 and 0.071 and 0.072 and 0.067
[4]; [6]
  Absorbance at 530 nm (AHAS product feedback inhibition assay, raw data), Avg: 0.2475 and 0.203 and 0.117
  Absorbance at 530 nm (AHAS product feedback inhibition assay, raw data): 0.252 and 0.243 and 0.239 and 0.166 and 0.115 and 0.116 and 0.122
[4]; [7]
  Absorbance at 530 nm (AHAS product feedback inhibition assay, raw data), Avg: 0.214 and 0.191 and 0.112
  Absorbance at 530 nm (AHAS product feedback inhibition assay, raw data): 0.205 and 0.223 and 0.217 and 0.113 and 0.110 and 0.112
[4]; [8]
  Absorbance at 530 nm (AHAS product feedback inhibition assay, raw data), Avg: 0.1815 and 0.166 and 0.089
  Absorbance at 530 nm (AHAS product feedback inhibition assay, raw data): 0.174 and 0.189 and 0.171 and 0.161 and 0.084 and 0.091 and 0.092
[5]; [6]
  Absorbance at 530 nm (AHAS product feedback inhibition assay, raw data), Avg: 0.213 and 0.207 and 0.080
  Absorbance at 530 nm (AHAS product feedback inhibition assay, raw data): 0.216 and 0.21 and 0.227 and 0.187 and 0.079 and 0.080 and 0.082
[5]; [7]
  Absorbance at 530 nm (AHAS product feedback inhibition assay, raw data), Avg: 0.196 and 0.178 and 0.073
  Absorbance at 530 nm (AHAS product feedback inhibition assay, raw data): 0.203 and 0.189 and 0.190 and 0.166 and 0.057 and 0.84 and 0.80
[5]; [8]
  Absorbance at 530 nm (AHAS product feedback inhibition assay, raw data), Avg: 0.1485 and 0.155 and 0.057
  Absorbance at 530 nm (AHAS product feedback inhibition assay, raw data): 0.155 and 0.142 and 0.176 and 0.133 and 0.054 and 0.061 and 0.056
[5]; extracts of 14CS0851-01-14, SRS 934 and MIDAS™ compared, 1 mM, 10 mM, 100 mM
  sensitivity of AHAS to feedback inhibition, comparison of enzyme extracts: no significant difference
